Data set [1] deals with T1, Heat shock protein 75 kDa, mitochondrial (Homo sapiens, UniProt Q12931).
T1 sequence (Q12931 whole entry): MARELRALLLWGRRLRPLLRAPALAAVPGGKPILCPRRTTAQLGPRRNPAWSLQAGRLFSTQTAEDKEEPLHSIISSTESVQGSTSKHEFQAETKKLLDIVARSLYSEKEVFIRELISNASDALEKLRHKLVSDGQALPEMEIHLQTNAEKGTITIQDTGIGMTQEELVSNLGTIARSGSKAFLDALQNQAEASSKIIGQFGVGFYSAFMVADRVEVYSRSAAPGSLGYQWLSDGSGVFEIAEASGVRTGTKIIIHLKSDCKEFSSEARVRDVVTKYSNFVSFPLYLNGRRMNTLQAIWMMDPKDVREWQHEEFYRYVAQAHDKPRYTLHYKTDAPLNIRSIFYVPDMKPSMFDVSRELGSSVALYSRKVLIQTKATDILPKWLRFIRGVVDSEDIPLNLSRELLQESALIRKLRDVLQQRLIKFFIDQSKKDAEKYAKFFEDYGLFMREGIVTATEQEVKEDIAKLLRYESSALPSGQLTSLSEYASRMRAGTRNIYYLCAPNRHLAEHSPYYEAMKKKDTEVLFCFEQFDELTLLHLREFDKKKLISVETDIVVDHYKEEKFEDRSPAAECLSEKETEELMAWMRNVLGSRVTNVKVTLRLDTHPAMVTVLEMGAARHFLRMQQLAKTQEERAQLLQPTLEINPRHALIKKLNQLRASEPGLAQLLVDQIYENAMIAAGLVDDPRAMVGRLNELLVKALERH
Description: Inhibition of PU-H71-FITC binding to recombinant wild-type human TRAP1 expressed in Escherichia coli BL21 (DE3) measured after 2 hrs by fluorescence polarization assay. Background: In fluorescence polarisation assays a small probe gives low polarisation when free and higher when bound to something large.

The target of data set [2] is T2, Heat shock protein HSP90 (Homo sapiens, UniProt P07900+P08238). Description: Inhibition of HSP90 in human PC3 cells at 5 uM measured after 2 to 12 hrs by Western blot analysis. The class given is cell-based. Conditions: pc-3, 5 µM; call rule not given here. Background: A western blot detects proteins with antibodies after separation by electrophoresis.
The target in data set [3] is T2, Heat shock protein HSP90. Description: Inhibition of HSP90 in human PC3 cells assessed as change in AKT expression at 5 uM measured after 2 to 12 hrs by Western blot analysis. Conditions: pc-3, 5 µM. Format: cell-based.
In data set [4] the target is T2, Heat shock protein HSP90. The data set is described as follows: Inhibition of HSP90 in human PC3 cells assessed as change in Chk1 expression at 5 uM measured after 2 to 12 hrs by Western blot analysis. The class given is cell-based. Conditions: pc-3, 5 µM.
Data set [5] addresses T2, Heat shock protein HSP90. Description: Inhibition of HSP90 in human PC3 cells assessed as change in Cdk4 expression at 5 uM measured after 2 to 12 hrs by Western blot analysis. The class given is cell-based. Conditions: pc-3, 5 µM.
Data set [6] addresses T2, Heat shock protein HSP90. The data set is described as follows: Inhibition of HSP90 in human PC3 cells assessed as change in Hsp70 expression at 5 uM measured after 2 to 12 hrs by Western blot analysis. As to conditions: pc-3, 5 µM. Format: cell-based.
Data set [7] concerns Hepatocyte. The data set is described as follows: Cytotoxicity against mouse hepatocytes assessed as reduction in cell viability up to 3 uM measured after 24 hrs by MTT assay. The class given is cell-based. Background: Tetrazolium assays rely on reduction of a dye to a coloured formazan, in cell work by metabolically active cells.

Consider three compounds from ChEMBL document CHEMBL4602687, “Dual Binding to Orthosteric and Allosteric Sites Enhances the Anticancer Activity of a TRAP1-Targeting Drug” (J Med Chem, 2020).

Turning to `Nc1ncnc2c1nc(Sc1cc3c(cc1I)OCO3)n2CCCCCCCC[P+](c1ccccc1)(c1ccccc1)c1ccccc1`, the IC50 (commonly the concentration at which inhibition is half-maximal) in data set [1] was 0.872 µM.

As for `Nc1ncnc2c1nc(Sc1cc3c(cc1I)OCO3)n2CCCCCCCCCC[P+](c1ccccc1)(c1ccccc1)c1ccccc1.[Br-]`, the IC50 in data set [1] came to 1.88 µM. The “inhibition (INH)” value in data set [2], in data set [3], in data set [4], in data set [5] and in data set [6] was “Not Active” throughout. Moreover, in data set [7], the Activity result is “Non-Toxic”.

For the compound `Nc1ncnc2c1nc(Sc1cc3c(cc1I)OCO3)n2CCCCCC[P+](c1ccccc1)(c1ccccc1)c1ccccc1`, in data set [1], the IC50 stood at 0.794 µM.
